From patent US8883793B2, “Tubulin inhibitors and methods of using the same” (Development Center for Biotechnology, priority 2010, dated 2014)

System: KB cell
Experiment: MTS assay, growth inhibition of KB cells
Format: cell-based
Conditions: Homo sapiens, at 10 μM concentration, incubated for 72 h, read-out: Inhibition rate (%) (growth inhibition rate of MTS assay)
Protocol: MTS assay was performed in determining the growth inhibition of cancer cells. MTS ((3-(4,5-dimethylthiazol-2-yl)-5-(3-carboxymethoxyphenyl)-2-(4-sulfophenyl)-2H-tetrazolium)), in the presence of phenazine methosulfate (PMS) and reductases, produces a formazan product that has an absorbance maximum at 490-500 nm. MTS assays (and closely related MTT assay) are commonly used to measure cell viabilities or survivals.
Briefly, KB/Hela, NCI-H460, A375, Colo205, HCT-116, U937, MCF-7, MDA-MB-231, A549, H1975 cells were seeded into 96-well plate at 4000, 4000, 2000, 2000, 2000 cells/well. After 24 h for attachment, test compound was added into each well and incubated for 72 h. A total of 20 μl of MTS reaction reagent containing the MTS (Promega, Madison, Wis.) and PMS in a ratio of 20:1 was added into each well to react with dehydrogenase enzyme in survival cells. After 3 h, the absorbance at 490 nm was monitored using Emax precision microplate reader (Molecular Devices, Sunnyvale, Calif.).
The growth inhibition rate of MTS assay at KB cell of these compounds (at 10 μM concentration) are list in Table 5.

## O=C(CCc1ccccc1)Nc1ncc(Cc2ccccc2)s1 [Compound 2, N-(5-Benzyl-thiazol-2-yl)-3-phenyl-propionamide]
  inhibition at 10 µM: 95.5%

## O=C(/C=C/c1ccccc1)Nc1ncc(Cc2ccccc2)s1 [Compound 3, N-(5-Benzyl-thiazol-2-yl)-3-phenyl-acrylamide]
  inhibition at 10 µM: 94.3%

## O=C(CCc1ccc(F)cc1)Nc1ncc(Cc2ccc3c(c2)OCO3)s1 [Compound 7, N-(5-Benzo[1,3]dioxol-5-ylmethyl-thiazol-2-yl)-3-(4-fluoro-phenyl)-propionamide]
  inhibition at 10 µM: 91.7%

## O=C(CCc1cccnc1)Nc1ncc(Cc2ccc3c(c2)OCO3)s1 [Compound 8, N-(5-Benzo[1,3]dioxol-5-ylmethyl-thiazol-2-yl)-3-pyridin-3-yl-propionamide]
  inhibition at 10 µM: 90.6%

## COc1ccc2cc(Cc3cnc(NC(=O)CCc4ccccc4)s3)ccc2c1 [Compound 14, N-[5-(6-Methoxy-naphthalen-2-ylmethyl)-thiazol-2-yl]-3-phenyl-propionamide]
  inhibition at 10 µM: 89.5%

## COc1ccc(CCC(=O)Nc2ncc(Cc3ccc(OC)cc3)s2)cc1 [Compound 15, N-[5-(4-Methoxy-benzyl)-thiazol-2-yl]-3-(4-methoxy-phenyl)-propionamide]
  inhibition at 10 µM: 93%

## COc1ccc(Cc2cnc(NC(=O)CCc3ccncc3)s2)cc1 [Compound 16, N-[5-(4-Methoxy-benzyl)-thiazol-2-yl]-3-pyridin-4-yl-propionamide]
  inhibition at 10 µM: 62%

## COc1ccc(Cc2cnc(NC(=O)CCc3ccc(F)cc3)s2)cc1OC [Compound 18, N-[5-(3,4-Dimethoxy-benzyl)-thiazol-2-yl]-3-(4-fluoro-phenyl)-propionamide]
  inhibition at 10 µM: 96.6%

## COc1ccc2cc(Cc3cnc(NC(=O)CCc4ccc(C)o4)s3)ccc2c1 [Compound 19, N-[5-(6-Methoxy-naphthalen-2-ylmethyl)-thiazol-2-yl]-3-(5-methyl-furan-2-yl)-propionamide]
  inhibition at 10 µM: 94.1%

## COc1ccc(CCC(=O)Nc2ncc(Cc3ccc(OC)c(OC)c3)s2)cc1 [Compound 20, N-[5-(3,4-Dimethoxy-benzyl)-thiazol-2-yl]-3-(4-methoxy-phenyl)-propionamide]
  inhibition at 10 µM: 93.4%

## Cc1ccc(CCC(=O)Nc2ncc(Cc3ccc4ccccc4c3)s2)o1 [Compound 21, 3-(5-Methyl-furan-2-yl)-N-(5-naphthalen-2-ylmethyl-thiazol-2-yl)-propionamide]
  inhibition at 10 µM: 97.1%

## O=C(CCc1ccccc1)Nc1ncc(Cc2ccc3ccccc3c2)s1 [Compound 22, N-(5-Naphthalen-2-ylmethyl-thiazol-2-yl)-3-phenyl-propionamide]
  inhibition at 10 µM: 95.6%

## O=C(CCc1ccc(F)cc1)Nc1ncc(Cc2ccc3ccccc3c2)s1 [Compound 23, 3-(4-Fluoro-phenyl)-N-(5-naphthalen-2-ylmethyl-thiazol-2-yl)-propionamide]
  inhibition at 10 µM: 95.8%

## O=C(CCc1cccnc1)Nc1ncc(Cc2ccc3ccccc3c2)s1 [Compound 24, N-(5-Naphthalen-2-ylmethyl-thiazol-2-yl)-3-pyridin-3-yl-propionamide]
  inhibition at 10 µM: 95.2%

## O=C(CCc1ccccc1)Nc1ncc(Cc2ccc(F)c(F)c2)s1 [Compound 25, N-[5-(3,4-Difluoro-benzyl)-thiazol-2-yl]-3-phenyl-propionamide]
  inhibition at 10 µM: 94.2%

## COc1cccc(CCC(=O)Nc2ncc(Cc3ccc(F)c(F)c3)s2)c1 [Compound 26, N-[5-(3,4-Difluoro-benzyl)-thiazol-2-yl]-3-(3-methoxy-phenyl)-propionamide]
  inhibition at 10 µM: 92.9%

## O=C(CCc1cccnc1)Nc1ncc(Cc2ccc(F)c(F)c2)s1 [Compound 27, N-[5-(3,4-Difluoro-benzyl)-thiazol-2-yl]-3-pyridin-3-yl-propionamide]
  inhibition at 10 µM: 91.2%

## O=C(CCc1ccc(F)cc1)Nc1ncc(Cc2ccc(F)c(F)c2)s1 [Compound 28, N-[5-(3,4-Difluoro-benzyl)-thiazol-2-yl]-3-(4-fluoro-phenyl)-propionamide]
  inhibition at 10 µM: 95%

## COc1cccc(CCC(=O)Nc2ncc(Cc3ccc(OC)c(OC)c3)s2)c1 [Compound 29, N-[5-(3,4-Dimethoxy-benzyl)-thiazol-2-yl]-3-(3-methoxy-phenyl)-propionamide]
  inhibition at 10 µM: 96.6%

## Cc1ccc(CCC(=O)Nc2ncc(Cc3ccc(F)c(F)c3)s2)o1 [Compound 30, N-[5-(3,4-Difluoro-benzyl)-thiazol-2-yl]-3-(5-methyl-furan-2-yl)-propionamide]
  inhibition at 10 µM: 92.3%

## COc1ccc(Cc2cnc(NC(=O)CCc3ccc(C)o3)s2)cc1OC [Compound 31, N-[5-(3,4-Dimethoxy-benzyl)-thiazol-2-yl]-3-(5-methyl-furan-2-yl)-propionamide]
  inhibition at 10 µM: 95.8%

## O=C(Nc1ncc(Cc2ccc(F)c(F)c2)s1)OCc1ccccc1 [Compound 32, [5-(3,4-Difluoro-benzyl)-thiazol-2-yl]-carbamic acid benzyl ester]
  inhibition at 10 µM: 52.7%

## O=C(Nc1ncc(Cc2ccc3c(c2)OCO3)s1)OCc1ccccc1 [Compound 33, (5-Benzo[1,3]dioxol-5-ylmethyl-thiazol-2-yl)-carbamic acid benzyl ester]
  inhibition at 10 µM: 92.4%

## O=C(CCc1ccccc1)Nc1ncc(Cc2c(F)c(F)c(F)c(F)c2F)s1 [Compound 34, N-(5-Pentafluorophenylmethyl-thiazol-2-yl)-3-phenyl-propionamide]
  inhibition at 10 µM: 92.8%

## COc1cccc(CCC(=O)Nc2ncc(Cc3c(F)c(F)c(F)c(F)c3F)s2)c1 [Compound 35, 3-(3-Methoxy-phenyl)-N-(5-pentafluorophenylmethyl-thiazol-2-yl)-propionamide]
  inhibition at 10 µM: 90.4%

## O=C(CCc1cccnc1)Nc1ncc(Cc2c(F)c(F)c(F)c(F)c2F)s1 [Compound 36, N-(5-Pentafluorophenylmethyl-thiazol-2-yl)-3-pyridin-3-yl-propionamide]
  inhibition at 10 µM: 94.3%

## O=C(CCc1cccc(F)c1)Nc1ncc(Cc2ccc3ccccc3c2)s1 [Compound 37, 3-(3-Fluoro-phenyl)-N-(5-naphthalen-2-ylmethyl-thiazol-2-yl)-propionamide]
  inhibition at 10 µM: 94.4%

## COc1cccc(CCC(=O)Nc2ncc(Cc3ccc4ccccc4c3)s2)c1 [Compound 38, 3-(3-Methoxy-phenyl)-N-(5-naphthalen-2-ylmethyl-thiazol-2-yl)-propionamide]
  inhibition at 10 µM: 94.2%

## O=C(CCc1ccc(F)cc1)Nc1ncc(Cc2ccc(-c3ccccc3)cc2)s1 [Compound 39, N-(5-Biphenyl-4-ylmethyl-thiazol-2-yl)-3-(4-fluoro-phenyl)-propionamide]
  inhibition at 10 µM: 94%

## O=C(CCc1cccnc1)Nc1ncc(Cc2ccc(-c3ccccc3)cc2)s1 [Compound 40, N-(5-Biphenyl-4-ylmethyl-thiazol-2-yl)-3-pyridin-3-yl-propionamide]
  inhibition at 10 µM: 58.8%

## COc1cc(Cc2cnc(NC(=O)CCc3ccccc3)s2)ccc1OC(=O)OCc1ccccc1 [Compound 41, Carbonic acid benzyl ester 2-methoxy-4-[2-(3-phenyl-propionylamino)-thiazol-5-ylmethyl]-phenyl ester]
  inhibition at 10 µM: 95.8%

## COc1cc(Cc2cnc(NC(=O)CCc3cccnc3)s2)ccc1OC(=O)OCc1ccccc1 [Compound 42, Carbonic acid benzyl ester 2-methoxy-4-[2-(3-pyridin-3-yl-propionylamino)-thiazol-5-ylmethyl]-phenyl ester]
  inhibition at 10 µM: 91.2%

## COc1cccc(CCC(=O)Nc2ncc(Cc3ccc(OC(=O)OCc4ccccc4)c(OC)c3)s2)c1 [Compound 43, Carbonic acid benzyl ester 2-methoxy-4-{2-[3-(3-methoxy-phenyl)-propionylamino]-thiazol-5-ylmethyl}-phenyl ester]
  inhibition at 10 µM: 95.6%

## COc1ccc(Cc2cnc(NC(=O)/C=C/c3ccc(C)o3)s2)cc1 [Compound 44, N-[5-(4-Methoxy-benzyl)-thiazol-2-yl]-3-(5-methyl-furan-2-yl)-acrylamide]
  inhibition at 10 µM: 93.1%

## O=C(CCc1ccc(F)cc1)Nc1ncc(Cc2ccc(C(F)(F)F)cc2)s1 [Compound 45, 3-(4-Fluoro-phenyl)-N-[5-(4-trifluoromethyl-benzyl)-thiazol-2-yl]-propionamide]
  inhibition at 10 µM: 94%

## O=C(CCc1cccnc1)Nc1ncc(Cc2ccc(C(F)(F)F)cc2)s1 [Compound 46, 3-Pyridin-3-yl-N-[5-(4-trifluoromethyl-benzyl)-thiazol-2-yl]-propionamide]
  inhibition at 10 µM: 96%

## COc1cccc(CCC(=O)Nc2ncc(Cc3ccc(C(F)(F)F)cc3)s2)c1 [Compound 48, 3-(3-Methoxy-phenyl)-N-[5-(4-trifluoromethyl-benzyl)-thiazol-2-yl]-propionamide]
  inhibition at 10 µM: 95.3%

## COc1cc(Cc2cnc(NC(=O)CCc3cccnc3)s2)cc(OC)c1OC [Compound 50, 3-Pyridin-3-yl-N-[5-(3,4,5-trimethoxy-benzyl)-thiazol-2-yl]-propionamide]
  inhibition at 10 µM: 97.2%

## COc1ccc(Cc2cnc(NC(=O)CCc3ccc(-c4ccccc4)cc3)s2)cc1 [Compound 51, 3-Biphenyl-4-yl-N-[5-(4-methoxy-benzyl)-thiazol-2-yl]-propionamide]
  inhibition at 10 µM: 96.1%

## COc1ccc(Cc2cnc(NC(=O)C(C)Cc3ccc(F)cc3)s2)cc1 (stereo not shown) [Compound 57, 3-(4-Fluoro-phenyl)-N-[5-(4-methoxy-benzyl)-thiazol-2-yl]-2-methyl-propionamide]
  inhibition at 10 µM: 93.2%
